Reference: US7959951B2, “Nitric oxide and its biomedical significance” (The Research Foundation at State University of New York, priority 2002, dated 2011)

Tested on: E. coli bacteria
Test: Inhibition of bacterial growth in LB broth culture
Type: cell-based
Conditions: One μg/ml in LB broth, 37° C, streaked on LB-agar
Protocol: A dried, powdered, formulation of a 1:1 mixture of the wheat grass extract and white willow bark extract prepared in Example 1 above was tested for its ability to inhibit bacterial growth in culture. The formulation was reconstituted in 10 ml of LB broth (Amersham Biosciences, Inc.). The broth was then inoculated with E. coli bacteria and incubated for 5 and 24 hours at 37° C. 20 μl of the cultures were streaked on LB-agar plates and incubated overnight at 37° C. […] An additional control experiment was conducted with the known antibacterial agent, SNAP. One μg/ml SNAP was added to LB broth. The broth was then inoculated with E. coli bacteria and incubated for 5 and 24 hours at 37° C. 20 μl of the cultures were streaked on LB-agar plates and incubated overnight at 37° C. Bacterial growth was decreased in the SNAP culture at 5 and 24 hours, as compared to the control.

CC(=O)N[C@@H](C(=O)O)C(C)(C)SN=O (racemic) [SNAP]
bacterial growth at 5 and 24 hours compared to control: decreased
